Assays:
[1] = tested on: blackgrass; assay: Test B pre/postemergence blackgrass; format: in vivo, Alopecurus myosuroides
Outline: (§1)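 Test chemicals in a non-phytotoxic solvent mixture with surfactant were sprayed preemergence onto planted seeds and postemergence onto plants 2 to 18 cm tall (1- to 4-leaf stage). After twelve to sixteen days in a greenhouse, injury was visually rated against untreated controls from 0 (no effect) to 10 (complete control).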

[2] = tested on: corn; assay: Test B pre/postemergence corn; format: in vivo, Zea mays
Outline: as §1

[3] = tested on: soybean; assay: Test B pre/postemergence soybean; format: in vivo, Glycine max
Outline: as §1

[4] = tested on: rape; assay: Test B pre/postemergence rape; format: in vivo, Brassica napus
Outline: as §1

[5] = tested on: purple nutsedge; assay: Test B pre/postemergence purple nutsedge; format: in vivo, Cyperus rotundus
Outline: as §1

[6] = tested on: wild oat; assay: Test B pre/postemergence wild oat; format: in vivo, Avena fatua
Outline: as §1

[7] = tested on: cocklebur; assay: Test B pre/postemergence cocklebur; format: in vivo, Xanthium strumarium
Outline: as §1

[8] = tested on: giant foxtail; assay: Test B pre/postemergence giant foxtail; format: in vivo, Setaria faberii
Outline: as §1

[9] = tested on: bedstraw; assay: Test B pre/postemergence bedstraw; format: in vivo, Galium aparine
Outline: as §1

[10] = tested on: wheat; assay: Test B pre/postemergence wheat; format: in vivo, Triticum aestivum
Outline: as §1

[11] = tested on: crabgrass; assay: Test B pre/postemergence crabgrass; format: in vivo, Digitaria sanguinalis
Outline: as §1

[12] = tested on: pigweed; assay: Test B pre/postemergence pigweed; format: in vivo, Amaranthus retroflexus
Outline: as §1

[13] = tested on: sugar beet; assay: Test B pre/postemergence sugar beet; format: in vivo, Beta vulgaris
Outline: as §1

[14] = tested on: surinam grass; assay: Test B pre/postemergence surinam grass; format: in vivo, Brachiaria decumbens
Outline: as §1

[15] = tested on: morningglory; assay: Test B pre/postemergence morningglory; format: in vivo, Ipomoea hederacea
Outline: as §1

[16] = tested on: velvetleaf; assay: Test B pre/postemergence velvetleaf; format: in vivo, Abutilon theophrasti
Outline: as §1

[17] = Postemergence, Rate 62 g/ha, scale 0 to 10, 0 is no effect, 10 is complete control
[18] = Postemergence, Rate 125 g/ha, scale of 0 to 10 where 0 is no effect and 10 is complete control
[19] = Postemergence, Rate 500 g/ha, scale 0 (no effect) to 10 (complete control)
[20] = Preemergence, Rate 250 g/ha, scale 0 (no effect) to 10 (complete control)
[21] = Rate 62 g/ha, Preemergence, scale 0 to 10
[22] = Rate 125 g/ha, Preemergence, scale 0 to 10 (0 no effect, 10 complete control)
[23] = Rate 250 g/ha, Postemergence, scale 0 to 10, 0 is no effect, 10 is complete control
[24] = Rate 500 g/ha, Preemergence, scale 0 to 10 (0 no effect, 10 complete control)

CCOC(CC)n1c(=O)on(C(=O)N(c2ccc(Cl)cc2)C(C)C)c1=O (stereo not drawn) [Compound 772]
0: Plant response rating, Blackgrass [1, 17] | Blackgrass plant response rating [1, 18] | Blackgrass plant response rating [1, 19] | Blackgrass plant response rating [1, 20] | Blackgrass plant response rating [1, 21] | Blackgrass plant response rating [1, 22] | Blackgrass plant response rating [1, 23] | Blackgrass plant response rating [1, 24] | Plant response rating, Corn [2, 17] | Corn plant response rating [2, 18] | Corn plant response rating [2, 19] | Corn plant response rating [2, 20] | Corn plant response rating [2, 21] | Corn plant response rating [2, 22] | Corn plant response rating [2, 23] | Corn plant response rating [2, 24] | Plant response rating, Soybean [3, 17] | Soybean plant response rating [3, 19] | Soybean plant response rating [3, 21] | Soybean plant response rating [3, 22] | Soybean plant response rating [3, 23] | Soybean plant response rating [3, 24] | Plant response rating, Rape [4, 17] | Rape plant response rating [4, 18] | Rape plant response rating [4, 19] | Rape plant response rating [4, 21] | Rape plant response rating [4, 22] | Rape plant response rating [4, 23] | Rape plant response rating [4, 24] | Plant response rating, Nutsedge [5, 17] | Nutsedge plant response rating [5, 18] | Nutsedge plant response rating [5, 19] | Nutsedge plant response rating [5, 21] | Nutsedge plant response rating [5, 22] | Nutsedge plant response rating [5, 23] | Nutsedge plant response rating [5, 24] | Plant response rating, Wild oats [6, 17] | Wild oats plant response rating [6, 19] | Wild oats plant response rating [6, 21] | Wild oats plant response rating [6, 22] | Wild oats plant response rating [6, 23] | Wild oats plant response rating [6, 24] | Plant response rating, Cocklebur [7, 17] | Cocklebur plant response rating [7, 18] | Cocklebur plant response rating [7, 19] | Cocklebur plant response rating [7, 20] | Cocklebur plant response rating [7, 21] | Cocklebur plant response rating [7, 22] | Cocklebur plant response rating [7, 23] | Cocklebur plant response rating [7, 24] | Plant response rating, Giant foxtail [8, 17] | Giant foxtail plant response rating [8, 18] | Giant foxtail plant response rating [8, 19] | Giant foxtail plant response rating [8, 20] | Giant foxtail plant response rating [8, 21] | Giant foxtail plant response rating [8, 22] | Giant foxtail plant response rating [8, 23] | Giant foxtail plant response rating [8, 24] | Plant response rating, Bedstraw [9, 17] | Bedstraw plant response rating [9, 18] | Bedstraw plant response rating [9, 19] | Bedstraw plant response rating [9, 20] | Bedstraw plant response rating [9, 21] | Bedstraw plant response rating [9, 22] | Bedstraw plant response rating [9, 23] | Bedstraw plant response rating [9, 24] | Plant response rating, Wheat [10, 17] | Wheat plant response rating [10, 19] | Wheat plant response rating [10, 21] | Wheat plant response rating [10, 22] | Wheat plant response rating [10, 23] | Wheat plant response rating [10, 24] | Plant response rating, Crabgrass [11, 17] | Crabgrass plant response rating [11, 18] | Crabgrass plant response rating [11, 19] | Crabgrass plant response rating [11, 20] | Crabgrass plant response rating [11, 21] | Crabgrass plant response rating [11, 22] | Crabgrass plant response rating [11, 23] | Crabgrass plant response rating [11, 24] | Plant response rating, Redroot pigweed [12, 17] | Redroot pigweed plant response rating [12, 18] | Redroot pigweed plant response rating [12, 19] | Redroot pigweed plant response rating [12, 21] | Redroot pigweed plant response rating [12, 22] | Redroot pigweed plant response rating [12, 23] | Redroot pigweed plant response rating [12, 24] | Plant response rating, Sugarbeets [13, 17] | Sugarbeets plant response rating [13, 19] | Sugarbeets plant response rating [13, 21] | Sugarbeets plant response rating [13, 22] | Sugarbeets plant response rating [13, 23] | Sugarbeets plant response rating [13, 24] | Plant response rating, B. signalgrass [14, 17] | B. signalgrass plant response rating [14, 18] | B. signalgrass plant response rating [14, 20] | B. signalgrass plant response rating ([14]; Rate 62 g/ha, Preemergence, scale 0 (no effect) to 10 (complete control)) | B. signalgrass plant response rating [14, 22] | B. signalgrass plant response rating [14, 23] | B. signalgrass plant response rating ([14]; Rate 500 g/ha, Postemergence, scale 0 to 10, 0 is no effect, 10 is complete control) | B. signalgrass plant response rating [14, 24] | Plant response rating, Morningglory [15, 17] | Morningglory plant response rating [15, 18] | Morningglory plant response rating [15, 21] | Morningglory plant response rating [15, 22] | Morningglory plant response rating [15, 23] | Morningglory plant response rating [15, 24] | Plant response rating, Velvetleaf [16, 17] | Velvetleaf plant response rating [16, 19] | Velvetleaf plant response rating [16, 21] | Velvetleaf plant response rating [16, 22] | Velvetleaf plant response rating [16, 23] | Velvetleaf plant response rating [16, 24]
2: Morningglory plant response rating [15, 19]

— patent US6737383B1, “Herbicidal oxadiazolidines” (priority 1999, dated 2004)
